Several values for one entry are separate records, joined by “and”; a condition that tells them apart may be missing. Identical values can stand only once. Blank lines part the entries; values can stand above or below the molecule they belong to. Where no end group is shown, it is not given here. [ ]: non-standard residue; d: D form. The star is where a group is joined. Tyr(3-NO2) = N[C@@H](Cc1ccc(O)c([N+](=O)[O-])c1)C(=O)O; EDDnp = O=[N+]([O-])c1ccc(NCCN*)c([N+](=O)[O-])c1; 2Abz = Nc1ccccc1C(=O)O; Cbz = O=C(OCc1ccccc1)*
Legend:
[1] = tested on: sACE (human ACE); conditions: cited from earlier work; for interdomain cooperativity: human ACE enzymes; for degree of cooperativity between domains: compared with many synthetic peptides
Source text: Due to the C‐domain's poorer hydrolysis of Aβ we can infer that the C‐domain appears ...

[2] = target: T1, sACE (Homo sapiens, UniProt P12821); experiment: Aβ(4–10)Q hydrolysis by sACE, fluorogenic assay; format: biochemical; conditions: fluorescence λex 320 nm, λem 420 nm, 50 mM Hepes pH 7.5, 100 mM NaCl, 10 μM ZnSO4, substrate 0 to 30 μM, 45 min, 37 °C, enzyme 1.50 pmol, n = 3
T1 construct: made in house; host or cells: CHO cells; purified from cell lysate
T1 sequence (P12821 30-1306): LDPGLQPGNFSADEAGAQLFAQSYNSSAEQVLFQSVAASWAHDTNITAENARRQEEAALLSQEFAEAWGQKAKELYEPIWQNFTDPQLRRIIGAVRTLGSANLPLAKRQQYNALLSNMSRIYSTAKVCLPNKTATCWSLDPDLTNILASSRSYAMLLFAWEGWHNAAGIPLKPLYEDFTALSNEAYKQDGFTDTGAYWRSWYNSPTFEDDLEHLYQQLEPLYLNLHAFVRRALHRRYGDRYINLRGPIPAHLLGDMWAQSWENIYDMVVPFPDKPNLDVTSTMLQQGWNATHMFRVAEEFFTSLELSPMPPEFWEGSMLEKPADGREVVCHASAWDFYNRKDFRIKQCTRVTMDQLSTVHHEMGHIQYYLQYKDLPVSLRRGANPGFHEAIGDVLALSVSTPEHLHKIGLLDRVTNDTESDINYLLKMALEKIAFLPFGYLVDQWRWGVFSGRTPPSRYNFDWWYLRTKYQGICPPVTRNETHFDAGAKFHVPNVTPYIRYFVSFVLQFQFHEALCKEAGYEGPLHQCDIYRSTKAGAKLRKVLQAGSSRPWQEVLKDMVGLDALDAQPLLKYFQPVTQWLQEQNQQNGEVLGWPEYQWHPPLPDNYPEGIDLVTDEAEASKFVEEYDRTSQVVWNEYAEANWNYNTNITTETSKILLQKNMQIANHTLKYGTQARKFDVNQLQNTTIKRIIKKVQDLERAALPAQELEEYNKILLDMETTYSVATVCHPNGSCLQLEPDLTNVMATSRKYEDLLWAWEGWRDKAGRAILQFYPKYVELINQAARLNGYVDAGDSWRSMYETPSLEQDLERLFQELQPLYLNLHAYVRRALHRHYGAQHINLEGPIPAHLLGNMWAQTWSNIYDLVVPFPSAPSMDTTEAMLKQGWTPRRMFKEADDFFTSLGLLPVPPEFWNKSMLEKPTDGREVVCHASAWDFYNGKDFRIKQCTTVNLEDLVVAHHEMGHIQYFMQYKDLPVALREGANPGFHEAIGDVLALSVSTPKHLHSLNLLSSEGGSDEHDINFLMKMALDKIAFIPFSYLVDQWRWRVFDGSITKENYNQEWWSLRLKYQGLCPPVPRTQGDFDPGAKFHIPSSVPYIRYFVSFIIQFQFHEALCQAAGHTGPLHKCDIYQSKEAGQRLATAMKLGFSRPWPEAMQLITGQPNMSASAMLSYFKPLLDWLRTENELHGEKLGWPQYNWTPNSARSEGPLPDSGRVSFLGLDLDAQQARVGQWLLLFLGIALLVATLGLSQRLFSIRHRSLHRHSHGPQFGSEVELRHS
Source text: (§1) Fluorogenic substrates designed around the established N‐terminal Asp7‐Ser8 cleavage site of the full‐length Aβ(1–42) were used to develop a higher throughput assay. There are two variations of the short fluorogenic peptides: Aβ(4–10)Q (Abz‐FRHDSG(Q)‐EDDnp) which has an N‐terminal Abz donor and a C‐terminal EDDnp quencher group attached to an additional Gln residue. The second peptide, Aβ(4–10)Y (Abz‐FRHDSG‐(NT)) has a different quencher molecule, NT, which substitutes for the naturally occurring Tyr residue.
(§2) Hydrolysis of the fluorogenic peptide Abz‐FRHDSG(Q)‐EDDnp (Aβ(4–10)Q, obtained from A. Carmona, Universidade Federal de São Paulo, Brazil) was performed in Hepes buffer (50 mM Hepes pH 7.5, 100 mM NaCl, 10 μM ZnSO4 buffer) with 150 μL enzyme (at final concentrations within 10% hydrolysis of total substrate; see Table 2) and equal volume of substrate ranging from 0 to 30 μM. The assay is a modified form of the continuous assay 7 where the assay is set up on ice in triplicate in a 96‐well plate. The baseline fluorescence was at time zero and then the substrate was incubated at 37 °C and fluorescence read at the 45 min time point on a Cary Eclipse spectrofluorimeter (Varian Inc.) at λex = 320 nm and λem = 420 nm. Again, kinetic constants were calculated using the Michaelis–Menten method with […] PRISM software (v4.01, GraphPad Prism®). The detected fluorescence was converted to picamoles product formed through the slope of a calibration curve of Abz‐Gly. A correction curve was also applied to correct the data for the inner filter effect 70.
(§3) Statistical analysis of the data was determined by Student's t test. Differences with P < 0.05 were considered statistically significant. Fractional error was calculated for the k cat/K m ratio with the following equation: ΔZ=ZΔa/a^2+Δb/b^2 where Z represents the mean k cat/K m and ΔZ represents the fractional error. The Δa represents the SEM of the mean k cat (a). Similarly, Δb represents the SEM of the mean K m (b).

[3] = tested on: CC‐sACE; experiment: Aβ(4–10)Q hydrolysis by CC‐sACE, fluorogenic assay; format: biochemical, human; conditions: Hepes pH 7.5, 37 °C, 45 min, fluorescence
Chain of CC‐sACE (P12821 643-1222 limits assumed): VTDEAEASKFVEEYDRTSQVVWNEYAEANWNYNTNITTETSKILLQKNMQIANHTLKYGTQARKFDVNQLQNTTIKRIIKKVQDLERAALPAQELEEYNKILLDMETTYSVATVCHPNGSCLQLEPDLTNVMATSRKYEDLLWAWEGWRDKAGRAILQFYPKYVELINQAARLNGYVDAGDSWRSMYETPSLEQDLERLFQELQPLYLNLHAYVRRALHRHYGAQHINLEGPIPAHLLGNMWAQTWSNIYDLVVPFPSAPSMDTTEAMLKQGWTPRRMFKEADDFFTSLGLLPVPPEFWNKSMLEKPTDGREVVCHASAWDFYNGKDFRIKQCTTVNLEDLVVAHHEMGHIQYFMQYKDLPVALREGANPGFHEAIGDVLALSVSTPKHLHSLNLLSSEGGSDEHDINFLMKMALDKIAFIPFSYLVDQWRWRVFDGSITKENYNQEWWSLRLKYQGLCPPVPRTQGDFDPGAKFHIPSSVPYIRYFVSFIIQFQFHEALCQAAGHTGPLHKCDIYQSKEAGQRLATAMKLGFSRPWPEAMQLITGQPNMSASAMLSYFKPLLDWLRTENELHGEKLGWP
Source text: as §1
as §2, with “The assay is a modified form of the continuous assay 7 where the assay is set up on ice in triplicate in a 96‐well plate.” left out, “PRISM software (v4.01, GraphPad Prism®).” left out, “A correction curve was also applied to correct the data for the inner filter effect 70.” left out
Statistical analysis of the data was determined by Student's t test. […]

[4] = target: T2, N‐sACE (Homo sapiens, UniProt P12821, H988K/H992K); experiment: Aβ(4–10)Q hydrolysis by N‐sACE, fluorogenic assay; format: biochemical; conditions: fluorescence λex 320 nm, λem 420 nm, 50 mM Hepes pH 7.5, 100 mM NaCl, 10 μM ZnSO4, substrate 0 to 30 μM, 45 min, 37 °C, enzyme 9.00 pmol, n = 3
T2 construct: Both constructs have the complete signal, transmembrane and stalk region corresponding to full‐length sACE; made in house; host or cells: CHO cells; purified from cell lysate
T2 sequence (P12821 30-1306 H988K/H992K): as the sequence (P12821 30-1306) above, with H959K, H963K counted along it
Source text: as §1, §2, §3

[5] = target: T3, Ndom (soluble form of the N‐domain of sACE) (Homo sapiens, UniProt P12821); experiment: Aβ(4–10)Q hydrolysis by Ndom, fluorogenic assay; format: biochemical; conditions: fluorescence λex 320 nm, λem 420 nm, 50 mM Hepes pH 7.5, 100 mM NaCl, 10 μM ZnSO4, substrate 0 to 30 μM, 45 min, 37 °C, enzyme 0.60 pmol, n = 3
T3 construct: made in house; host or cells: CHO cells
T3 sequence (P12821 30-658): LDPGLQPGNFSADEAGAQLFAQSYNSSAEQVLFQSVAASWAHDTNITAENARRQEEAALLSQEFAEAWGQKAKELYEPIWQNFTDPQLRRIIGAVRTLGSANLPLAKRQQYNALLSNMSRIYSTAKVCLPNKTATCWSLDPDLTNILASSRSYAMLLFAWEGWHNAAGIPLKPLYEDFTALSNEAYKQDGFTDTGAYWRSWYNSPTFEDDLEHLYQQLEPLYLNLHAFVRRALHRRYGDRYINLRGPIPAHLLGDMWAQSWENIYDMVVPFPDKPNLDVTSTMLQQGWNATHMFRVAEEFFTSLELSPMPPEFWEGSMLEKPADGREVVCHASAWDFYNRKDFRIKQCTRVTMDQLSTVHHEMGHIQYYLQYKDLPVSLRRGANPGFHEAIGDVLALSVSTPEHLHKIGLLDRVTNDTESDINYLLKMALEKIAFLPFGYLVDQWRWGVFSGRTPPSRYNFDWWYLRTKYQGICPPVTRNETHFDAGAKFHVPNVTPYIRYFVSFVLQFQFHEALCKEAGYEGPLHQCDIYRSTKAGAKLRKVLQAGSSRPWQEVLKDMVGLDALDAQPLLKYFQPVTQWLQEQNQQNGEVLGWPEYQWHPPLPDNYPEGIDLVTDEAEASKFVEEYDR
Source text: as §1, §2, §3

[6] = tested on: ACE variants; experiment: Cleavage‐site analysis by MALDI‐TOF MS, kinetic assay conditions; format: biochemical, human; conditions: MALDI‐TOF MS of products within kinetic assay conditions; Aβ(1–16): all ACE variants except Cdom; Aβ(4–10) peptides: Cdom and CC‐sACE not analysed
Description: The mass spectrometry was analysed at the Centre for Proteomic and Genomic Research (Cape Town, South Africa). Briefly, the collected peptides were spotted onto a 10 mg·mL^−1 α‐cyano‐4‐hydroxycinnamic acid matrix (Fluka, USA) in 80% ACN, 0.2% TFA for a final concentration of 5 mg·mL^−1 matrix in 40% ACN, 0.1% TFA, 10 mM NH4H2PO4. Mass spectrometry was performed with a 4800 MALDI‐TOF/TOF (Applied Biosytems) with all spectra recorded in positive reflector mode. Spectra were generated with 400 laser shots/spectrum at a laser intensity of 3800 (arbitrary units) with a grid voltage of 16 kV.

[7] = target: T1, sACE; experiment: Interdomain cooperativity in hydrolysis of Aβ substrates; format: biochemical; conditions: two domains of sACE, truncated and full‐length constructs compared
Description: Mixtures were separated on a Poroshell 120 EC‐18 column with a 2.7 μm pore size. The reaction consists of 25 μL substrate incubated with 25 μL enzyme for 15 min at 37 °C and was stopped with the addition of 10 μL of 0.25% trifluoroacetic acid (TFA). The total reaction (60 μL) was cleared of contaminants on a spin column (GHP Nanosep® MF Centrifugal Device 0.45 μm pore size) and run on the HPLC. Kinetic parameters were determined through the fitting of initial rates to the Michaelis–Menten equation with […] PRISM software (v 4.01, GraphPad Prism®).
The reaction was incubated for 15 min at 37 °C and stopped with the addition of 10 μL 0.25% TFA to make up a total volume of 60 μL. The reactions were performed in triplicate and 50 μL injections were analysed via HPLC (Agilent Technologies) across a gradient of 0.1% TFA and 2% ACN in water to 0.1% TFA, 95% ACN. A calibration curve was set up to convert the product peak area to picomoles product formed, through the complete hydrolysis of the substrate with the N‐domain. […] Kinetic constants were calculated using the Michaelis–Menten method using […] […]
The assay is a modified form of the continuous assay 7 where the assay is set up on ice in triplicate in a 96‐well plate. The baseline fluorescence was at time zero and then the substrate was incubated at 37 °C and fluorescence read at the 45 min time point on a Cary Eclipse spectrofluorimeter (Varian Inc.) at λex = 320 nm and λem = 420 nm. Again, kinetic constants were calculated using the Michaelis–Menten method with […] […] The detected fluorescence was converted to picamoles product formed through the slope of a calibration curve of Abz‐Gly. […]
An alternative fluorogenic peptide, Abz‐FRHDSG‐(NT) (BIOPEP™ South Africa) was assayed, with 100 μL enzyme and 100 μL substrate (at a final enzyme concentration within 10% hydrolysis of total substrate; see Table 3) as above, in 96‐well plates. The samples were read at the 5 min time point on a Cary Eclipse spectrofluorimeter (Varian Inc.) at λex = 320 nm and λem = 420 nm. Kinetic constants, inner filter effect and standard curves were calculated as above.

[8] = target: T4, C‐sACE (Homo sapiens, UniProt P12821, H390K/H394K); experiment: Aβ(4–10)Q hydrolysis by C‐sACE, fluorogenic assay; format: biochemical; conditions: fluorescence λex 320 nm, λem 420 nm, 50 mM Hepes pH 7.5, 100 mM NaCl, 10 μM ZnSO4, substrate 0 to 30 μM, 45 min, 37 °C, enzyme 1.50 pmol, n = 3
T4 construct: Both constructs have the complete signal, transmembrane and stalk region corresponding to full‐length sACE; made in house; host or cells: CHO cells; purified from cell lysate
T4 sequence (P12821 30-1306 H390K/H394K): as the sequence (P12821 30-1306) above, with H361K, H365K counted along it
Source text: as §1, §2, §3

[9] = target: human wild-type somatic ACE (sACE) (human) (UniProt P12821)
Chain of human wild-type somatic ACE (sACE) (human) (P12821 30-1306): as the sequence (P12821 30-1306) above

[10] = target: full-length domain knockout variant of human sACE with only the C-domain active (C-sACE) (human) (UniProt P12821)
Chain of full-length domain knockout variant of human sACE with only the C-domain active (C-sACE) (human) (P12821 other isoform, or with tags, fused parts or gaps, change not shown): as the sequence (P12821 30-1306) above, with H361K, H365K counted along it

[11] = target: full-length domain knockout variant of human sACE with only the N-domain active (N-sACE) (human) (UniProt P12821)
Chain of full-length domain knockout variant of human sACE with only the N-domain active (N-sACE) (human) (P12821 other isoform, or with tags, fused parts or gaps, change not shown): as the sequence (P12821 30-1306) above, with H959K, H963K counted along it

[12] = target: soluble form of the N-domain of human sACE (Ndom) (human) (UniProt P12821)
Chain of soluble form of the N-domain of human sACE (Ndom) (human) (P12821 30-658): as the sequence (P12821 30-658) above

[13] = tested on: ACE; conditions: recombinant truncated domains only; cited from earlier work
Source text: Based on our results and the synergistic effect that the C‐domain exerts on the N‐domain, the C‐domain activity is likely to be important in vivo. […] This observation is supported by the architecture of the central cavity found in tACE (human testis ACE, C‐domain equivalent) crystal structure and the chloride‐dependent substrate interactions 54, 57. The latter study, ...

[14] = tested on: ACE; conditions: full‐length Aβ(1–42); cited from earlier work
Source text: This type of cleavage has been observed in previous studies with other amyloid peptides 23, 24 and was also observed in the crystal structures of the N‐domain in complex with all the Aβ fragments tested. Based on the MS analysis of th ...

[15] = target: full-length domain knockout variant of human sACE with only the C-domain active (C-sACE) (human) (UniProt P12821); remark: listed apart in the source
[16] = target: full-length domain knockout variant of human sACE with only the N-domain active (N-sACE) (human) (UniProt P12821); remark: listed apart in the source
[17] = target: full-length domain knockout variant of human sACE with only the C-domain active (C-sACE) (human) (UniProt P12821); remark: listed apart in the source
[18] = target: full-length domain knockout variant of human sACE with only the N-domain active (N-sACE) (human) (UniProt P12821); remark: listed apart in the source
[19] = mean ± fractional error of the ratio

Molecule: (Abz)‐LFK(Dnp)‐OH
effect of the presence of the N‐domain on hydrolysis [1]: regulatory effects

Molecule: Abz‐FRHDSG(Q)‐EDDnp [Aβ(4–10)Q, fluorogenic Aβ(4–10) peptide, Abz donor, EDDnp quencher attached to additional Gln]
K m ([2]; mean ± SEM): 22.90 ± 3.45 µM
V max ([2]; mean ± SEM): 0.09 ± 0.01
k cat ([2]; mean ± SEM): 0.06 ± 0.01 s⁻¹
k cat/K m [2, 19]: 0.03 ± 0.01 M^−1·s^−1 × 10^5
hydrolysis by CC‐sACE [3]: almost no hydrolysis
K m ([4]; mean ± SEM): 42.43 ± 3.92 µM
V max ([4]; mean ± SEM): 3.23 ± 0.20
k cat ([4]; mean ± SEM): 0.36 ± 0.02 s⁻¹
k cat/K m [4, 19]: 0.09 M^−1·s^−1 × 10^5 and 0.09 ± 0.01 M^−1·s^−1 × 10^5
K m ([5]; mean ± SEM): 22.20 ± 3.23 µM
V max ([5]; mean ± SEM): 0.29 ± 0.02
k cat ([5]; mean ± SEM): 0.48 ± 0.04 s⁻¹
k cat/K m [5, 19]: 0.22 M^−1·s^−1 × 10^5 and 0.22 ± 0.04 M^−1·s^−1 × 10^5
cleavage site (bond) [6]: Asp7‐Ser8
interdomain cooperativity [7]: This is also true for the Aβ(4–10)Q substrate, although to a much lesser extent
K m ([8]; mean ± SEM): 11.50 ± 3.03 µM
V max ([8]; mean ± SEM): 0.12 ± 0.01
k cat ([8]; mean ± SEM): 0.08 ± 0.01 s⁻¹
k cat/K m [8, 19]: 0.08 ± 0.02 M^−1·s^−1 × 10^5

Km of hydrolysis of Aβ(1–16) (HPLC assay, 15 min, 37 °C, 50 mM Hepes pH 7.5, 100 mM NaCl, 10 μM ZnSO4) [9]: 35.2 μM
Km of hydrolysis of Aβ(1–16) (HPLC assay, 15 min, 37 °C, 50 mM Hepes pH 7.5, 100 mM NaCl, 10 μM ZnSO4) [10]: 42.4 μM
Km of hydrolysis of Aβ(1–16) (HPLC assay, 15 min, 37 °C, 50 mM Hepes pH 7.5, 100 mM NaCl, 10 μM ZnSO4) [11]: 34.2 μM
Km of hydrolysis of Aβ(1–16) (HPLC assay, 15 min, 37 °C, 50 mM Hepes pH 7.5, 100 mM NaCl, 10 μM ZnSO4) [12]: 21.4 μM
Molecule: Aβ(1–16) (H-…-OH) (peptide)

Molecule: Aβ(1–40): larger Aβ(1–40) substrate
competition with hippuryl‐L‐histidyl‐ L‐leucine [13]: did not out‐compete

Molecule: Aβ(1–42): full‐length Aβ(1–42)
cleavage sites [14]: multiple cleavage sites

Molecule: Cbz-Phe-His-Leu [ACE substrate]
effect of the presence of the N‐domain on hydrolysis [1]: regulatory effects

Molecule: angiotensin I (DRVYIHPFHL; Angiotensin-1; UniProt P01019 25-34, looked up) [physiological ACE substrate]
interdomain cooperativity [1]: showed a similar result for angiotensin I and angiotensin‐(1‐7) but not angiotensin‐(1‐9)

Molecule: angiotensin‐(1‐7) (DRVYIHP; Angiotensin 1-7; UniProt P01019 25-31, looked up, fragment) [physiological substrate]
interdomain cooperativity [1]: showed a similar result for angiotensin I and angiotensin‐(1‐7) but not angiotensin‐(1‐9)

Molecule: angiotensin‐(1‐9) (DRVYIHPFH; Angiotensin 1-9; UniProt P01019 25-33, looked up, fragment) [physiological substrate]
degree of cooperativity between domains [1]: considerably less than many synthetic peptides
interdomain cooperativity [1]: showed a similar result for angiotensin I and angiotensin‐(1‐7) but not angiotensin‐(1‐9)

Molecule: bradykinin (RPPGFSPFR; Bradykinin; UniProt P01042 381-389, looked up) [vasodilatory peptide, physiological substrate]
degree of cooperativity between domains [1]: considerably less than many synthetic peptides

Km of hydrolysis of Aβ(4–10)Y (fluorescence assay, read at 5 min) [15]: 38.1 µM
Km of hydrolysis of Aβ(4–10)Y (fluorescence assay, read at 5 min) [16]: 8.56 µM
B1: Aβ(4–10)Y (Abz-FRHDSG-(NT)) (peptide)
peptide: [2Abz]FRHDSG[Tyr(3-NO2)]

Km of hydrolysis of Aβ(4–10)Q (fluorescence assay, 45 min, 37 °C, 50 mM Hepes pH 7.5, 100 mM NaCl, 10 μM ZnSO4) [17]: 11.5 μM
Km of hydrolysis of Aβ(4–10)Q (fluorescence assay, 45 min, 37 °C, 50 mM Hepes pH 7.5, 100 mM NaCl, 10 μM ZnSO4) [18]: 42.4 μM
B2: Aβ(4–10)Q (Abz-FRHDSG(Q)-EDDnp) (peptide)
peptide: [2Abz]FRHDSGQ-EDDnp
